Results reported in ChEMBL document CHEMBL5338806, “Rationally Designed Nonapeptides with Great Skin Photoprotective Effect through Producing Type 1 Collagen and Blocking the mTOR Pathway” (J Med Chem, 2023).
Activity calls are given as the source filed them. The calls are words filed in the database; no cut-off is given here. Where a SMILES comes first, the peptide text is derived from it.

Tests used:
HFF-1 = test: Cytotoxicity against HFF-1 cells upto 160 ug/mL incubated for 24 hrs by MTT assay; type: toxicity, cell-based; details: human, hff-1, 24 h, up to 160 µg/mL
[1] = Antioxidant activity assessed as ROS scavenging activity; type: functional
HEK293 = test: Activation of COL1a2 transcriptional activity in HEK293 cells by dual-luciferase reporter assay; type: functional, cell-based; details: Homo sapiens
Mus musculus = test: Protection against UV radiation-stress induced skin damage in Kunming mouse model assessed as repair of broken skin at 20 ug/ml administered topically and measured every 2 days for 10 days; type: functional, organism-based; details: dose 20.0 µg/ml, route top, time 10.0 day
[2] = Antioxidant activity assessed as DPPH radical scavenging activity by measuring eradication rate at 80 ug/mL incubated for 30 mins by absorbance based assay relative to control; type: functional; details: dose 80.0 µg/ml

| Structure (SMILES) | Activity (HFF-1) | Activity [1] | Activity (HEK293) | Activity (Mus musculus) | Activity [2] |
| --- | --- | --- | --- | --- | --- |
| CC(C)[C@H](N)C(=O)N[C@H](C(=O)N1CCC[C@H]1C(=O)N1CCC[C@H]1C(=O)N[C@@H](CS)C(=O)N[C@@H](CCCCN)C(=O)O)C(C)C (H-VVPPCK-OH) | 2.84% | Active | – | – | – |
| CC(C)C[C@H](NC(=O)[C@H](Cc1c[nH]c2ccccc12)NC(=O)[C@@H]1CCCN1C(=O)[C@@H]1CCCN1C(=O)[C@H](CC(C)C)NC(=O)[C@@H](N)CC(C)C)C(=O)N[C@@H](CCCNC(=N)N)C(=O)N1CCC[C@H]1C(=O)N[C@@H](CCCCN)C(=O)N[C@@H](CS)C(=O)N[C@@H](CO)C(=O)O (H-LLPPWLRPKCS-OH) | – | – | Active | – | – |
| CC(C)C[C@H](NC(=O)[C@@H](N)C(C)C)C(=O)N1CCC[C@H]1C(=O)N[C@@H](CCCCN)C(=O)N[C@@H](CS)C(=O)N[C@@H](Cc1c[nH]c2ccccc12)C(=O)O (H-VLPKCW-OH) | – | Active | – | – | – |
| CC(C)[C@H](N)C(=O)N[C@H](C(=O)N[C@@H](CCCCN)C(=O)N[C@@H](CS)C(=O)N1CCC[C@H]1C(=O)N[C@@H](CCCCN)C(=O)O)C(C)C (H-VVKCPK-OH) | – | Active | Active | Active | 85.4% |
